In publication PMC7714403 (JCI Insight, 2020) one finds Inhibition, inhibition and Apoptosis data, which are given here for one compound.

Broadly, the Inhibition is the percentage by which the read-out fell short of the control. A higher Inhibition goes with a strong effect. A word on the inhibition: it is the change of the read-out against control, counted positive when it falls.

Like-named read-outs stand apart in the source and are kept apart here.

The test system of one experiment is MARK2, MARK3. Briefly: KiNativ, OCI cells live cell. Type of experiment: cell-based, human. Particulars: labeling site Lys2, peptide DLKAENLLLDADMNIK
The next experiment addresses T1, AurA (Homo sapiens, UniProt O14965).
T1 sequence (O14965 1-403): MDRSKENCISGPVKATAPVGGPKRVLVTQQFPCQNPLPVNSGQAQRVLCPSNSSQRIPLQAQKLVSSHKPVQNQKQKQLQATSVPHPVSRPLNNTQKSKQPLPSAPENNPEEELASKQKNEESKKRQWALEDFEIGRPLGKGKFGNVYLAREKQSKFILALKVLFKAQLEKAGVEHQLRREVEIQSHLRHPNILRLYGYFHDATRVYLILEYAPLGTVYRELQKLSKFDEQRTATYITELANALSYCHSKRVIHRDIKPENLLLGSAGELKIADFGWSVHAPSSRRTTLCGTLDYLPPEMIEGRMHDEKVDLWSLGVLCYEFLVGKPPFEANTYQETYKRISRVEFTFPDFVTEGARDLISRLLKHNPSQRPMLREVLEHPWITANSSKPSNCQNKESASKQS
Briefly: KiNativ, OCI cells live cell. It is filed as cell-based. The settings on record: 2 h.

In another experiment the target is ACK1 (Homo sapiens, UniProt Q07912). The experiment is described as follows: KiNativ in situ kinase profiling, OCI-AML3 cells. Type of experiment: cell-based. The method, then:
(§1) Samples were analyzed by KiNativ in situ kinase profiling by ActivX Biosciences.

For another experiment, the target named is T2, GCK (Homo sapiens, UniProt Q12851).
T2 sequence (Q12851 1-820): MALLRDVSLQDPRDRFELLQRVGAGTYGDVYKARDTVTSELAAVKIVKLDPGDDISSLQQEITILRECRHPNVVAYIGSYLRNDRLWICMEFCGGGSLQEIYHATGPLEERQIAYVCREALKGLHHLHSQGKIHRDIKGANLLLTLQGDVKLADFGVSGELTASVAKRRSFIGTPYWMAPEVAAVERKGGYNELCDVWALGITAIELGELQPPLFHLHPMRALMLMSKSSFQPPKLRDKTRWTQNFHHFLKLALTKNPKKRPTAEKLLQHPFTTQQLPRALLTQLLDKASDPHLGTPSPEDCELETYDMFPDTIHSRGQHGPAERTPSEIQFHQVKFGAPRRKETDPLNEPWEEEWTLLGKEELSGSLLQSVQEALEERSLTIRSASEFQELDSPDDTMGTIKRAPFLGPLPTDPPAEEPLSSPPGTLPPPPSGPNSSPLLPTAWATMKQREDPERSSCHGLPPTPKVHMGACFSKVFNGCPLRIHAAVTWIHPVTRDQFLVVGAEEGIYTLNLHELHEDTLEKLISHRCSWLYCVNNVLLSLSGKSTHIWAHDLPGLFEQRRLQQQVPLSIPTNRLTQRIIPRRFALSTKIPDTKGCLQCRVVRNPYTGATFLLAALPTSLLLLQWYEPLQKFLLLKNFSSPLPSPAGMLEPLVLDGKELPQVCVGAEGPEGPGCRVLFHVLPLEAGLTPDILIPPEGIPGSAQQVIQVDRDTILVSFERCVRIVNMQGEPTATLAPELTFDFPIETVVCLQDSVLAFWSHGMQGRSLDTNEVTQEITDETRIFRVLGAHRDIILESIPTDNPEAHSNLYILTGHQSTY
The experiment is described as follows: KiNativ in situ kinase profiling, OCI-AML3 cells. Type of experiment: cell-based. The method, then: as §1

The target in the next experiment is RAF1 (Homo sapiens, UniProt P04049). The experiment is described as follows: KiNativ, OCI cells live cell. It is filed as cell-based. The settings on record: 2 h, labeling site Lys2, peptide […].
Chain of RAF1 (P04049 whole entry): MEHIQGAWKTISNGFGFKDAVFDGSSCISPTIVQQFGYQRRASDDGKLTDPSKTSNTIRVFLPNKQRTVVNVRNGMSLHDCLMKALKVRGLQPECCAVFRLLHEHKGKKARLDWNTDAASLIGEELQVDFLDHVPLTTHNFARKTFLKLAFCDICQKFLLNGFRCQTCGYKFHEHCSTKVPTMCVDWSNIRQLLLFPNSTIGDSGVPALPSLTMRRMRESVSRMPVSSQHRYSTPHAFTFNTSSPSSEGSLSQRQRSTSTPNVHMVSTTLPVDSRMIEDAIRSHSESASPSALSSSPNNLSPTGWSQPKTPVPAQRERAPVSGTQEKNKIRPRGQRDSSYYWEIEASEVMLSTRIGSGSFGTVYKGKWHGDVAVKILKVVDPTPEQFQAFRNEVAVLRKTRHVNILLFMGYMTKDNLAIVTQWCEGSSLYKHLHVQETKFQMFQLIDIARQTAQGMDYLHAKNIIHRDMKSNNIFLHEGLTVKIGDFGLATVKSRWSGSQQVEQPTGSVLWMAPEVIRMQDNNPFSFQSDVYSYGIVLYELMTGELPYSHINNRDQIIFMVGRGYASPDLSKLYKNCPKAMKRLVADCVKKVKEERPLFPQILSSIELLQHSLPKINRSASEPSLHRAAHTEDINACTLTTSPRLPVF
The target of a further experiment is DLK (Homo sapiens, UniProt Q12852). Briefly: KiNativ, OCI cells live cell. The settings on record: labeling site Lys2, peptide DLKSPNMLITYDDVVK
Chain of DLK (Q12852 whole entry): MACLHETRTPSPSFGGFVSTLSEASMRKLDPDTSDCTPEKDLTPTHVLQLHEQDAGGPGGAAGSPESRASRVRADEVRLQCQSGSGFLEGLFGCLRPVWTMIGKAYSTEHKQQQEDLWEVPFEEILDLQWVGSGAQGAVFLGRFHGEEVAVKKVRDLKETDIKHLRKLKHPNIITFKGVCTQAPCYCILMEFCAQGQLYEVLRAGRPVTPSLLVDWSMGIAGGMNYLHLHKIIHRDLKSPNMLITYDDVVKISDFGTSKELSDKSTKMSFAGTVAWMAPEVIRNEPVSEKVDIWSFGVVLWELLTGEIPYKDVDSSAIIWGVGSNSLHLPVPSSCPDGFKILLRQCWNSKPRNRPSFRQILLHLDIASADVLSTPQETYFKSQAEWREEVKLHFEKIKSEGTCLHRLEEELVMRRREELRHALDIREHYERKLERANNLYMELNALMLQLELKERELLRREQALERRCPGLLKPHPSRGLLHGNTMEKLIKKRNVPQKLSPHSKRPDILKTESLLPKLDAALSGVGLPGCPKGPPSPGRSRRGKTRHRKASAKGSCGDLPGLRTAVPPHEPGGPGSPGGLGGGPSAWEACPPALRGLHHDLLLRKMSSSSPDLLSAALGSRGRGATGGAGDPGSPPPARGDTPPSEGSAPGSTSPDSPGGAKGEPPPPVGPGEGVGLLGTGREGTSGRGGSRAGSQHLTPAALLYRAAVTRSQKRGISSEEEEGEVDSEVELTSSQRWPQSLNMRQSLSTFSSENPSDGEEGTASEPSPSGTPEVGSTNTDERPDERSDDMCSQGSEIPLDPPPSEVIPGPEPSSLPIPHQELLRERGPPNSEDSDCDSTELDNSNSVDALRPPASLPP
Type of experiment: cell-based.

The next experiment concerns MAP2K1, MAP2K2. Briefly: KiNativ, OCI cells live cell. Type of experiment: cell-based, human. Particulars: labeling site Lys2, peptide DVKPSNILVNSR
Another experiment concerns the target T3, STLK5 (Homo sapiens, UniProt Q7RTN6).
T3 sequence (Q7RTN6 1-431): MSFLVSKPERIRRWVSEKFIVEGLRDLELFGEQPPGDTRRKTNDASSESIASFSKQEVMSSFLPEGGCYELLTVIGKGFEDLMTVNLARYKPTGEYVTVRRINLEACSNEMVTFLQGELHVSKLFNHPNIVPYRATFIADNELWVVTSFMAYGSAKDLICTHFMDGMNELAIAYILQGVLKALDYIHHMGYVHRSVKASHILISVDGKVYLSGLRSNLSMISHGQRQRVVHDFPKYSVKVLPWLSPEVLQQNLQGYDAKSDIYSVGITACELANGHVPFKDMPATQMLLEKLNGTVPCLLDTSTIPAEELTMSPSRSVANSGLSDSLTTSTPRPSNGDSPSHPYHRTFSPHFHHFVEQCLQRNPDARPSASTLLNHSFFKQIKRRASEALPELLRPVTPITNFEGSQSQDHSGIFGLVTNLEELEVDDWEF
The experiment is described as follows: KiNativ, OCI cells live cell. Type of experiment: cell-based. The settings on record: 2 h, labeling site Lys2, peptide […].

The next experiment addresses FER (Homo sapiens, UniProt P16591). Briefly: KiNativ, OCI cells live cell. It is filed as cell-based. Particulars: 2 h, labeling site Activation Loop, peptide […].
Another experiment relates to OCI-AML3 cells. The experiment is described as follows: Apoptosis assay (annexin V). Type of experiment: cell-based, human. Particulars: 20–50 nM, 72 hours. The method, then: (§2) Apoptosis and CD11b expression assays
(§3) At indicated time points, cells were collected and washed with PBS. CD11b expression was measured using anti-CD11b -APC antibody (BioLegend, San Diego, CA). Each sample was suspended in 100uL of FACS buffer (PBS + 4% FBS) with 1uL of antibody, incubated on ice for 15 minutes in the dark and washed once in PBS. DAPI (final concentration 1ug/mL [ThermoFisher Scientific]) was added to each sample as a viability dye. For apoptosis assay, cells were incubated with annexin V-APC (BioLegend) according to manufacturer’s instructions. CD11b expression and apoptosis were measured by BD LSR II flow cytometer. Two-color cytometry was performed, and data were […]
(§4) points, cells were collected and washed with 0.1% EDTA PBS (Ricca Chemical Company, Arlington, TX) followed by only PBS. Cells were then fixed on ice with ice-cold 70% ethanol for 30 minutes . Cells were either stored at -20°C for up to 1 month or processed immediately. Cells were spun down at 450 x g for 10 minutes and stained

In experiment [1] the test system is MV4-11, MOLM13, and MOLM13-RES cells. Briefly: Apoptosis assay (annexin V). The settings on record: 20 nM, 24 and 48 hours. It is filed as cell-based, human. The method, then:
as §2, §3, §4

Chain of ACK1 (Q07912 whole entry): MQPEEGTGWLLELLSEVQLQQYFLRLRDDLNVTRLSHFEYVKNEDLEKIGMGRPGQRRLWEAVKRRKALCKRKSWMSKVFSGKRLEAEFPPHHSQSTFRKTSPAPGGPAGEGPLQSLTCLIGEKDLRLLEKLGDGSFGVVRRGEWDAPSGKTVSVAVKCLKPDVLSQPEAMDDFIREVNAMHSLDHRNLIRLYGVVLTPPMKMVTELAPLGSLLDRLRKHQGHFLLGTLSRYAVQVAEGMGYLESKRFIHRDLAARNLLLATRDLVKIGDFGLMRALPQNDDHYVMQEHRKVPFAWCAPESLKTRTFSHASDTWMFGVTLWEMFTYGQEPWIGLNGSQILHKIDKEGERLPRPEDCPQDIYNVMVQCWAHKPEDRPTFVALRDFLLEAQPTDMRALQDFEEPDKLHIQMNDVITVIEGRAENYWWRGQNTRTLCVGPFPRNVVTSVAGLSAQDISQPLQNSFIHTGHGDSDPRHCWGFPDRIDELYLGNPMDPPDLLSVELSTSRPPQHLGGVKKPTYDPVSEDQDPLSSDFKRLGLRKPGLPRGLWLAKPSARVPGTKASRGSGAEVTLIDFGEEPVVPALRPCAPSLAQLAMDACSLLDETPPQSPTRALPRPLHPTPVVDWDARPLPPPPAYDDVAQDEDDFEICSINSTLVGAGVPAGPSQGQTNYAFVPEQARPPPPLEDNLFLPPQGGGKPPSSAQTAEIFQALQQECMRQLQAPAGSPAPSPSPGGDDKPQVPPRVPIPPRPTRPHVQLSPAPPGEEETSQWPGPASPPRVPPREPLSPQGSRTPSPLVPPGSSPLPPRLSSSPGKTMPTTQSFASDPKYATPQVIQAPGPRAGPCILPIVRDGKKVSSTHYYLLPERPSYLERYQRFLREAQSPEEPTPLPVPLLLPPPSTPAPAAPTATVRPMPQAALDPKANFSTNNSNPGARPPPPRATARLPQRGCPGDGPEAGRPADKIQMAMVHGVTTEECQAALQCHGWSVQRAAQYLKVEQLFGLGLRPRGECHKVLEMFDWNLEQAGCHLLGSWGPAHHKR
Chain of FER (P16591 whole entry): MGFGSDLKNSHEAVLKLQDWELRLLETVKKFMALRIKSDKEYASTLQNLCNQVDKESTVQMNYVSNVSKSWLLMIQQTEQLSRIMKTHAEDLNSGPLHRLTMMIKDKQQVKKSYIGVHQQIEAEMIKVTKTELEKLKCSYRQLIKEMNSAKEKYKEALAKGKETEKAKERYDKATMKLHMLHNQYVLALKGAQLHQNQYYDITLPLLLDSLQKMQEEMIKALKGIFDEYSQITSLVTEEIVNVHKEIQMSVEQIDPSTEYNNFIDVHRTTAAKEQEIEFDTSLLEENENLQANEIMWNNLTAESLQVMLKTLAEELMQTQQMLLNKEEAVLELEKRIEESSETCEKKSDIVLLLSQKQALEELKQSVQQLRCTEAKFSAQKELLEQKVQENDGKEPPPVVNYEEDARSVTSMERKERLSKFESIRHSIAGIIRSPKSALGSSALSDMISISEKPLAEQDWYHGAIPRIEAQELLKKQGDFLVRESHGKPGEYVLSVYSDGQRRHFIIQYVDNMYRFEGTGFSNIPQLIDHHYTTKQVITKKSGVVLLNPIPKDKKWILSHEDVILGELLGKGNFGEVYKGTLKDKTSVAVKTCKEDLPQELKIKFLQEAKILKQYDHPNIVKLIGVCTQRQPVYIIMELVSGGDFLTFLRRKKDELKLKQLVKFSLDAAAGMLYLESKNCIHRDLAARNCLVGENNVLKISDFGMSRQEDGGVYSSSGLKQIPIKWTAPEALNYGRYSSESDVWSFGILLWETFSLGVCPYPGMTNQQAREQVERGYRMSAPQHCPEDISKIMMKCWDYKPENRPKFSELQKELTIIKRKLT

As for `CN1CCN(Cc2ccc(Nc3ncc(Cl)c(Nc4ccccc4S(=O)(=O)N(C)C)n3)cc2)CC1` [TP-0903], the Inhibition in the experiment on MARK2, MARK3 was determined as 50.8%; at DLK, 91.0%; with MAP2K1, MAP2K2, 11.7%. For the same compound, the inhibition at 0.1 µM is 89.9% at AurA (labeling site Lys1, peptide FILALKVLFK); 90.7% on AurA (labeling site Lys2, peptide DIKPENLLLGSAGELK); 81.6% at ACK1 (OCI-AML-3, 2 h, OCI cells, live cell, labeling site Activation Loop, peptide KVPFAWCAPESLK, read-out: Inhibition); 86.9% on ACK1 (OCI-AML-3, 2 h, OCI cells, live cell, labeling site Lys1, peptide TVSVAVKCLKPDVLSQPEAMDDFIR, read-out: Inhibition); 87% at ACK1 (OCI-AML-3, OCI-AML3 cells, 100 nM, read-out: Inhibition of ACK1); 45.6% on GCK (OCI-AML-3, 2 h, OCI cells, live cell, labeling site Lys1, peptide DTVTSELAAVKIVK, read-out: Inhibition). For the same compound, the inhibition at 0.1 µM at GCK (OCI-AML-3, 2 h, OCI cells, live cell, labeling site Lys2, peptide DIKGANLLLTLQGDVK, read-out: Inhibition) was 42.3%; at GCK (OCI-AML-3, OCI-AML3 cells, 100 nM, read-out: Inhibition of GCK), 46%; at RAF1 it was 7%; against STLK5, -46.6%; against FER it was 70.2%. Besides, the Apoptosis entry (with OCI-AML3 cells; in experiment [1]) was “significant apoptosis” each time.
